≈ marks a conversion by molar mass, not a printed value. Calls of active or inactive are those of the source. The rule behind the calls is not given here.
What was measured:
[1] = Antiproliferative activity against human U373MG cells after 120 hrs by MTT asasy; format: functional, cell-based, U-373MG ATCC; conditions: U373 MG
Staphylococcus aureus [2] = assay: Antimicrobial activity against Staphylococcus aureus CIP 4.83 after 18 to 24 hrs by broth microdilution method; format: functional
Enterococcus hirae = assay: Antimicrobial activity against Enterococcus hirae CIP 5855 after 18 to 24 hrs by broth microdilution method; format: functional
Pseudomonas aeruginosa = assay: Antimicrobial activity against Pseudomonas aeruginosa CIP 82.118 after 18 to 24 hrs by broth microdilution method; format: functional
Escherichia coli = assay: Antimicrobial activity against Escherichia coli CIP 53126 after 18 to 24 hrs by broth microdilution method; format: functional
[3] = system: Mycobacterium tuberculosis; assay: Antimycobacterial activity against Mycobacterium tuberculosis H37Rv after 6 days by MTT colorimetric microassay; format: functional, organism-based; conditions: 144 h
[4] = system: Mycobacterium tuberculosis; assay: Antimycobacterial activity against Mycobacterium tuberculosis H37Rv assessed as growth inhibition at 10 uM after 6 days by MTT colorimetric microassay; format: functional; conditions: 144 h, read-out: GI
[5] = system: Mycobacterium tuberculosis; assay: Antimycobacterial activity against Mycobacterium tuberculosis H37Rv assessed as growth inhibition at 1 uM after 6 days by MTT colorimetric microassay; format: functional; conditions: 144 h, read-out: GI
[6] = system: Mycobacterium tuberculosis; assay: Antimycobacterial activity against Mycobacterium tuberculosis H37Rv assessed as growth inhibition at 0.1 uM after 6 days by MTT colorimetric microassay; format: functional, organism-based
Staphylococcus aureus [7] = assay: Antimicrobial activity against methicillin-resistant Staphylococcus aureus ATCC 33591 after 18 to 24 hrs by broth microdilution method; format: functional
Staphylococcus aureus [8] = assay: Antimicrobial activity against methicillin-resistant Staphylococcus aureus ATCC 33592 after 18 to 24 hrs by broth microdilution method; format: functional
Staphylococcus aureus [9] = assay: Antimicrobial activity against multidrug-resistant Staphylococcus aureus isolate 1 after 18 to 24 hrs by broth microdilution method; format: functional
Staphylococcus aureus [10] = assay: Antimicrobial activity against multidrug-resistant Staphylococcus aureus isolate 2 after 18 to 24 hrs by broth microdilution method; format: functional
Staphylococcus aureus [11] = assay: Ratio of ciprofloxacin MIC to compound MIC for multidrug-resistant Staphylococcus aureus isolate 1; format: functional
Staphylococcus aureus [12] = assay: Ratio of ciprofloxacin MIC to compound MIC for multidrug-resistant Staphylococcus aureus isolate 2; format: functional
[13] = Solubility of compound in cell medium at 20 uM at 37 degC after 24 hrs; format: physicochemical
Staphylococcus aureus [14] = assay: Ratio of ciprofloxacin MIC to compound MIC for methicillin-resistant Staphylococcus aureus ATCC 33592; format: functional
A549 = assay: Antiproliferative activity against human A549 cells after 120 hrs by MTT asasy; format: functional, cell-based; conditions: A549, 120 h
PC-3 = assay: Antiproliferative activity against human PC3 cells after 120 hrs by MTT asasy; format: functional, cell-based; conditions: PC-3, 120 h
LoVo = assay: Antiproliferative activity against human LoVo cells after 120 hrs by MTT asasy; format: functional, cell-based
MCF7 = assay: Antiproliferative activity against human MCF7 cells after 120 hrs by MTT asasy; format: functional, cell-based; conditions: MCF7, 120 h

SMILES	IC50 [1]	MBC (Staphylococcus aureus [2])	MIC (Staphylococcus aureus [2])	MBC (Enterococcus hirae)	MIC (Enterococcus hirae)	MBC (Pseudomonas aeruginosa)	MIC (Pseudomonas aeruginosa)	MBC (Escherichia coli)	MIC (Escherichia coli)	IC50 [3]	MIC [3]	inhibition of growth at 10 µM [4]	inhibition of growth at 1 µM [5]	growth inhibition (GI) [6]	MBC (Staphylococcus aureus [7])	MIC (Staphylococcus aureus [7])	MBC (Staphylococcus aureus [9])	MIC (Staphylococcus aureus [9])	MBC (Staphylococcus aureus [10])	MIC (Staphylococcus aureus [10])	also measured
CCCCCCCCCCCC(=O)OCOC(=O)c1cn2c3c(c(N4CCN(C)CC4)c(F)cc3c1=O)OC[C@@H]2C	0.2 µM	≤ 0.97 µM	≤ 0.97 µM	1.9 µM (≈ 1.09 µg/mL)	1.9 µM (≈ 1.09 µg/mL)	3.9 µM (≈ 2.24 µg/mL)	≤ 0.97 µM	3.9 µM (≈ 2.24 µg/mL)	3.9 µM (≈ 2.24 µg/mL)	1.3 µM	2.5 µM (≈ 1.43 µg/mL)	> 95%	74%	inactive	–	–	–	–	–	–	–
CCCCCCCCCCCC(=O)OCC(=O)N1CCN(c2cc3c(cc2F)c(=O)c(C(=O)O)cn3C2CC2)CC1	49 µM	≤ 0.97 µM	≤ 0.97 µM	7.8 µM (≈ 4.46 µg/mL)	7.8 µM (≈ 4.46 µg/mL)	250 µM (≈ 143 µg/mL)	62.5 µM (≈ 35.7 µg/mL)	250 µM (≈ 143 µg/mL)	125 µM (≈ 71.5 µg/mL)	–	–	> 95%	–	inactive	3.9 µM (≈ 2.23 µg/mL)	1.9 µM (≈ 1.09 µg/mL)	500 µM (≈ 286 µg/mL)	125 µM (≈ 71.5 µg/mL)	250 µM (≈ 143 µg/mL)	62.5 µM (≈ 35.7 µg/mL)	MBC (Staphylococcus aureus [8]): 0.97 µM (≈ 0.555 µg/mL); MIC (Staphylococcus aureus [8]): 0.06 µM (≈ 0.0343 µg/mL)
CCCCCCCCCC(=O)OCC(=O)N1CCN(c2cc3c(cc2F)c(=O)c(C(=O)O)cn3C2CC2)CC1	–	≤ 0.97 µM	≤ 0.97 µM	15.6 µM (≈ 8.48 µg/mL)	7.8 µM (≈ 4.24 µg/mL)	250 µM (≈ 136 µg/mL)	31.2 µM (≈ 17 µg/mL)	15.6 µM (≈ 8.48 µg/mL)	15.6 µM (≈ 8.48 µg/mL)	–	–	> 95%	–	inactive	0.48 µM (≈ 0.261 µg/mL)	0.24 µM (≈ 0.13 µg/mL)	15.6 µM (≈ 8.48 µg/mL)	7.8 µM (≈ 4.24 µg/mL)	15.6 µM (≈ 8.48 µg/mL)	7.8 µM (≈ 4.24 µg/mL)	Ratio (Staphylococcus aureus [11]): 2; Ratio (Staphylococcus aureus [12]): 2
C[C@H]1COc2c(N3CCN(C)CC3)c(F)cc3c(=O)c(C(=O)NCCCCCCCCCCNC(=O)c4cn5c6c(c(N7CCN(C)CC7)c(F)cc6c4=O)OC[C@@H]5C)cn1c23	–	7.8 µM (≈ 6.7 µg/mL)	7.8 µM (≈ 6.7 µg/mL)	62.5 µM (≈ 53.7 µg/mL)	31.2 µM (≈ 26.8 µg/mL)	62.5 µM (≈ 53.7 µg/mL)	31.2 µM (≈ 26.8 µg/mL)	≤ 0.97 µM	≤ 0.97 µM	2.4 µM	5 µM (≈ 4.3 µg/mL)	60%	–	inactive	–	–	–	–	–	–	solubility [13]: Insoluble
CCCCCCCCCC(=O)N1CCN(c2cc3c(cc2F)c(=O)c(C(=O)O)cn3C2CC2)CC1	5 µM	62.5 µM (≈ 30.4 µg/mL)	7.8 µM (≈ 3.79 µg/mL)	15.6 µM (≈ 7.58 µg/mL)	15.6 µM (≈ 7.58 µg/mL)	250 µM (≈ 121 µg/mL)	125 µM (≈ 60.7 µg/mL)	500 µM (≈ 243 µg/mL)	125 µM (≈ 60.7 µg/mL)	–	–	> 95%	20%	inactive	–	–	–	–	–	–	–
CCCCCCCCCCCCCCCNC(=O)c1cn2c3c(c(N4CCN(C)CC4)c(F)cc3c1=O)OC[C@@H]2C	–	15.6 µM (≈ 8.9 µg/mL)	15.6 µM (≈ 8.9 µg/mL)	7.8 µM (≈ 4.45 µg/mL)	7.8 µM (≈ 4.45 µg/mL)	250 µM (≈ 143 µg/mL)	62.5 µM (≈ 35.7 µg/mL)	500 µM (≈ 285 µg/mL)	125 µM (≈ 71.3 µg/mL)	6.5 µM	10 µM (≈ 5.71 µg/mL)	> 95%	5%	inactive	–	–	–	–	–	–	–
CCCCOC(=O)N1CCN(c2cc3c(cc2F)c(=O)c(C(=O)O)cn3C2CC2)CC1	31 µM	≤ 0.12 µM	≤ 0.06 µM	7.8 µM (≈ 3.37 µg/mL)	3.9 µM (≈ 1.68 µg/mL)	250 µM (≈ 108 µg/mL)	62.5 µM (≈ 27 µg/mL)	31.2 µM (≈ 13.5 µg/mL)	7.8 µM (≈ 3.37 µg/mL)	–	–	–	–	inactive	0.12 µM (≈ 0.0518 µg/mL)	0.03 µM (≈ 0.0129 µg/mL)	500 µM (≈ 216 µg/mL)	62.5 µM (≈ 27 µg/mL)	31.2 µM (≈ 13.5 µg/mL)	31.2 µM (≈ 13.5 µg/mL)	MBC (Staphylococcus aureus [8]): 0.12 µM (≈ 0.0518 µg/mL); Ratio (Staphylococcus aureus [14]): 63
C[C@H]1COc2c(N3CCN(C)CC3)c(F)cc3c(=O)c(C(=O)NCCCCCCCCCNC(=O)c4cn5c6c(c(N7CCN(C)CC7)c(F)cc6c4=O)OC[C@@H]5C)cn1c23	0.2 µM	31.2 µM (≈ 26.4 µg/mL)	31.2 µM (≈ 26.4 µg/mL)	31.2 µM (≈ 26.4 µg/mL)	31.2 µM (≈ 26.4 µg/mL)	250 µM (≈ 211 µg/mL)	62.5 µM (≈ 52.8 µg/mL)	3.9 µM (≈ 3.3 µg/mL)	3.9 µM (≈ 3.3 µg/mL)	2.5 µM	5 µM (≈ 4.23 µg/mL)	60%	20%	inactive	–	–	–	–	–	–	IC50 (A549): 0.2 µM; IC50 (PC-3): 0.2 µM; IC50 (LoVo): 0.2 µM; IC50 (MCF7): 0.2 µM; solubility [13]: soluble

From ChEMBL document CHEMBL1914411, “Synthesis of lipophilic dimeric C-7/C-7-linked ciprofloxacin and C-6/C-6-linked levofloxacin derivatives. Versatile in vitro biological evaluations of monomeric and dimeric fluoroquinolone derivatives as potential antitumor, antibacterial or antimycobacterial agents” (Eur J Med Chem, 2011)
